# From patent US4772586A, “Novel derivatives of arginine vasopressin antagonists” (Medical College of Ohio, priority 1986, dated 1988)
# *1 amine or outer side, *2 acyl side, *3 side chain or, on linkers, in order; H or OH if unused. Where a SMILES comes first, the peptide text is derived from it. Bridges are numbered along the chain shown (N, C = ends). [ ]: non-standard residue; d: D form. The star is where a group is joined. Ethylenediamine = C(CN[*:2])N[*:1]; X1 = O=C(CC1(S[*:2])CCCCC1)[*:1]; Orn = NCCC[C@H](N)C(=O)O; NH(CH2)4NH2 = NCCCCN*; NHBu = CCCCN*
# What was measured:
# [1] = tested on: antidiuretic response to arginine vasopressin; test: Antagonism of the antidiuretic response to arginine vasopressin (Anti-ADH); assay type: in vivo, rats; conditions: for Anti-ADH Potency pA2: estimated in vivo pA2; for Anti-ADH pA2: Table 1, estimated in vivo pA2 = negative log of effective dose divided by volume of distribution (67 ml/kg)
# Method: Activity as antidiuretic agonists was determined by intravenous injection of the compounds being evaluated in ethanol-anesthesized water-loaded rats in accordance with Sawyer, Endocrinology, vol. 63 (1958) at 694. Antagonism of the antidiuretic response to subsequent injections of arginine vasopressin was tested by the method of Sawyer et al., Science, vol. 212 (1981) at 49.
# (§1) Antagonistic potencies were determined and expressed as "effective doses" and pA2 values. The "effective dose" is defined as the dose (in nanomoles per kilogram) that reduces the response seen from 2x units of agonist injected 20 min after the dose of antagonist to the response with 1x units of agonist. Estimated in vivo "pA2 " values represent the negative logarithms of the effective doses, divided by the estimated volume of distribution (67 ml/kg).
# [2] = tested on: vasopressor response to arginine vasopressin; test: Antagonism to the vasopressor response (Anti-VP); assay type: in vivo; conditions: estimated in vivo pA2; for Anti-VP pA2: Table 1
# Method: Antagonism to the vasopressor response was estimated in accordance with Dyckes et al., J. Med. Chem., vol. 17 (1974) at 969. The values are expressed as pA2 values, defined as in Schild et al., Br. J. Pharmacol., vol. 2 (1947) at 189.
# as §1
structure (smiles),measurement,setting,value
"CC[C@H](C)[C@@H]1NC(=O)[C@H](Cc2ccccc2)NC(=O)[C@@H](Cc2ccccc2)NC(=O)CC2(CCCCC2)SSC[C@@H](C(=O)N2CCC[C@H]2C(=O)N[C@@H](CCCNC(=N)N)C(=O)N[C@H](C(N)=O)C(C)C)NC(=O)[C@H](CC(N)=O)NC1=O [Val(NH2), [1-(beta-mercapto-beta,beta-cyclopentamethylenepropionic acid), 2-D-phenylalanine, 4-isoleucine, 9-valinamide]-arginine vasopressin] ([dF]FINCPRV-NH2; linker N-5 via X1)",Anti-ADH Potency pA2,[1]; Table 2,8.11 ± 0.11
same,Anti-VP Potency pA2,[2]; Table 2,7.66 ± 0.10
"COc1ccc(C[C@@H]2NC(=O)CC3(CCCCC3)SSC[C@@H](C(=O)N3CCC[C@H]3C(=O)N[C@@H](CCCNC(=N)N)C(=O)NCC(=O)NCCN)NC(=O)[C@H](CC(N)=O)NC(=O)[C@H](CCC(N)=O)NC(=O)[C@H](Cc3ccccc3)NC2=O)cc1 [[1-(beta-mercapto-beta,beta-cyclopentamethylenepropionic acid), 2-(O-methyl)tyrosine, 9-glycine-N-(beta-amino)ethylamide]-arginine vasopressin] (Y(Me)FQNCPRG-Ethylenediamine; linker N-5 via X1)",Anti-VP Potency pA2,"[2]; Table 4, ^+ = mixed",8.39 ± 0.05
"CNC(=O)[C@H](CCCNC(=N)N)NC(=O)[C@@H]1CCCN1C(=O)[C@@H]1CSSC2(CCCCC2)CC(=O)N[C@@H](Cc2ccc(OC)cc2)C(=O)N[C@@H](Cc2ccccc2)C(=O)N[C@@H](CCC(N)=O)C(=O)N[C@@H](CC(N)=O)C(=O)N1 [[1-(beta-mercapto-beta,beta-cyclopentamethylenepropionic acid), 2-(O-methyl)tyrosine, 8-arginine-N-methylamide, 9-desglycinamide] vasopressin] (Y(Me)FQNCPR-NHMe; linker N-5 via X1)",Anti-ADH Potency pA2,[1]; Table 4,~ 5.9
same,Anti-VP Potency pA2,"[2]; Table 4, ^+ = mixed",8.73 ± 0.02
"CC[C@H](C)[C@@H]1NC(=O)[C@H](Cc2ccccc2)NC(=O)[C@@H](Cc2ccccc2)NC(=O)CC2(CCCCC2)SSC[C@@H](C(=O)N2CCC[C@H]2C(=O)N[C@@H](CCCNC(=N)N)C(=O)NCCCCN)NC(=O)[C@H](CC(N)=O)NC1=O [[1-(beta-mercapto-beta,beta-cyclopentamethylenepropionic acid), 2-D-phenylalanine, 4-isoleucine, 8-arginine-N-(delta-amino)butylamide, 9-desglycinamide] vasopressin] ([dF]FINCPR-{NH(CH2)4NH2}; linker N-5 via X1)",Anti-ADH Potency pA2,[1]; Table 4,8.11 ± 0.03
same,Anti-VP Potency pA2,"[2]; Table 4, ^+ = mixed",7.61 ± 0.08
"CC[C@H](C)[C@@H]1NC(=O)[C@H](Cc2ccccc2)NC(=O)[C@@H](Cc2ccccc2)NC(=O)CC2(CCCCC2)SSC[C@@H](C(=O)N2CCC[C@H]2C(=O)N[C@@H](CCCNC(=N)N)C(=O)N[C@@H](CCCN)C(N)=O)NC(=O)[C@H](CC(N)=O)NC1=O [Orn(NH2), [1-(beta-mercapto-beta,beta-cyclopentamethylenepropionic acid), 2-D-phenylalanine, 4-isoleucine, 9-ornithinamide]-arginine vasopressin] ([dF]FINCPR[Orn]-NH2; linker N-5 via X1)",Anti-ADH Potency pA2,[1]; Table 2,8.18 ± 0.09
same,Anti-VP Potency pA2,[2]; Table 2,7.80 ± 0.05
"CCOc1ccc(C[C@H]2NC(=O)CC3(CCCCC3)SSC[C@@H](C(=O)N3CCC[C@H]3C(=O)N[C@@H](CCCNC(=N)N)C(=O)NCC(N)=O)NC(=O)[C@H](CC(N)=O)NC(=O)[C@H](C(C)C)NC(=O)[C@H](Cc3ccccc3)NC2=O)cc1 [d(CH2)5 [D-Tyr(Et)^2]VAVP, [1-(beta-mercapto-beta,beta-cyclopentamethylenepropionic acid), 2-D-(O-ethyl)tyrosine, 4-valine]-arginine vasopressin, reference compound] ([dY](Et)FVNCPRG-NH2; linker N-5 via X1)",Anti-ADH pA2,[1],7.81 ± 0.07
same,Anti-VP pA2,[2],8.22 ± 0.12
"CC[C@H](C)[C@H](NC(=O)[C@H](CCCNC(=N)N)NC(=O)[C@@H]1CCCN1C(=O)[C@@H]1CSSC2(CCCCC2)CC(=O)N[C@H](Cc2ccccc2)C(=O)N[C@@H](Cc2ccccc2)C(=O)N[C@@H]([C@@H](C)CC)C(=O)N[C@@H](CC(N)=O)C(=O)N1)C(N)=O [Ile(NH2), [1-(beta-mercapto-beta,beta-cyclopentamethylenepropionic acid), 2-D-phenylalanine, 4-isoleucine, 9-isoleucinamide]-arginine vasopressin] ([dF]FINCPRI-NH2; linker N-5 via X1)",Anti-ADH Potency pA2,[1]; Table 2,7.58 ± 0.11
same,Anti-VP Potency pA2,[2]; Table 2,7.04 ± 0.05
"CC[C@H](C)[C@@H]1NC(=O)[C@H](Cc2ccccc2)NC(=O)[C@@H](Cc2ccccc2)NC(=O)CC2(CCCCC2)SSC[C@@H](C(=O)N2CCC[C@H]2C(=O)N[C@@H](CCCNC(=N)N)C(=O)NCCN)NC(=O)[C@H](CC(N)=O)NC1=O [[1-(beta-mercapto-beta,beta-cyclopentamethylenepropionic acid), 2-D-phenylalanine, 4-isoleucine, 8-arginine-N-(beta-amino)ethylamide, 9-desglycinamide] vasopressin] ([dF]FINCPR-Ethylenediamine; linker N-5 via X1)",Anti-ADH Potency pA2,[1]; Table 4,8.11 ± 0.06
same,Anti-VP Potency pA2,"[2]; Table 4, ^+ = mixed",7.89 ± 0.04
"CCOc1ccc(C[C@@H]2NC(=O)CC3(CCCCC3)SSC[C@@H](C(=O)N3CCC[C@H]3C(=O)N[C@@H](CCCNC(=N)N)C(=O)NCC(N)=O)NC(=O)[C@H](CC(N)=O)NC(=O)[C@H](C(C)C)NC(=O)[C@H](Cc3ccccc3)NC2=O)cc1 [d(CH2)5 [Tyr(Et)]^2 VAVP, [1-(beta-mercapto-beta,beta-cyclopentamethylenepropionic acid), 2-(O-ethyl)tyrosine, 4-valine]-arginine vasopressin, reference compound] (Y(Et)FVNCPRG-NH2; linker N-5 via X1)",Anti-ADH pA2,[1],7.57 ± 0.06
same,Anti-VP pA2,[2],8.16 ± 0.09
"CC[C@H](C)[C@@H]1NC(=O)[C@H](Cc2ccccc2)NC(=O)[C@@H](Cc2ccccc2)NC(=O)CC2(CCCCC2)SSC[C@@H](C(=O)N2CCC[C@H]2C(=O)N[C@@H](CCCNC(=N)N)C(=O)N[C@@H](CO)C(N)=O)NC(=O)[C@H](CC(N)=O)NC1=O [Ser(NH2), [1-(beta-mercapto-beta,beta-cyclopentamethylenepropionic acid), 2-D-phenylalanine, 4-isoleucine, 9-serinamide]-arginine vasopressin] ([dF]FINCPRS-NH2; linker N-5 via X1)",Anti-ADH Potency pA2,[1]; Table 2,8.10 ± 0.07
same,Anti-VP Potency pA2,[2]; Table 2,8.10 ± 0.08
"CCCCNC(=O)[C@H](CCCNC(=N)N)NC(=O)[C@@H]1CCCN1C(=O)[C@@H]1CSSC2(CCCCC2)CC(=O)N[C@H](Cc2ccccc2)C(=O)N[C@@H](Cc2ccccc2)C(=O)N[C@@H]([C@@H](C)CC)C(=O)N[C@@H](CC(N)=O)C(=O)N1 [[1-(beta-mercapto-beta,beta-cyclopentamethylenepropionic acid), 2-D-phenylalanine, 4-isoleucine, 8-arginine-N-(n-butyl)amide, 9-desglycinamide)] vasopressin] ([dF]FINCPR-NHBu; linker N-5 via X1)",Anti-VP Potency pA2,"[2]; Table 4, ^+ = mixed",7.13 ± 0.08
"N=C(N)NCCC[C@H](NC(=O)[C@@H]1CCCN1C(=O)[C@@H]1CSSC2(CCCCC2)CC(=O)N[C@@H](Cc2ccc(O)cc2)C(=O)N[C@@H](Cc2ccccc2)C(=O)N[C@@H](CCC(N)=O)C(=O)N[C@@H](CC(N)=O)C(=O)N1)C(N)=O [desGly^9 d(CH2)5 AVP, [1-(beta-mercapto-beta,beta-cyclopentamethylenepropionic acid), 9-desglycine]-arginine vasopressin] (YFQNCPR-NH2; linker N-5 via X1)",Anti-VP pA2,[2],8.40 ± 0.06
"CCCCNC(=O)CNC(=O)[C@H](CCCNC(=N)N)NC(=O)[C@@H]1CCCN1C(=O)[C@@H]1CSSC2(CCCCC2)CC(=O)N[C@@H](Cc2ccc(OC)cc2)C(=O)N[C@@H](Cc2ccccc2)C(=O)N[C@@H](CCC(N)=O)C(=O)N[C@@H](CC(N)=O)C(=O)N1 [d(CH2)5 [Tyr(Me)^2, Gly(NHBu-n)^9]AVP, [1-(beta-mercapto-beta,beta-cyclopentamethylenepropionic acid), 2-(O-methyl)tyrosine, 9-glycine-N-(n-butyl)amide]-arginine vasopressin] (Y(Me)FQNCPRG-NHBu; linker N-5 via X1)",Anti-VP Potency pA2,"[2]; Table 4, ^+ = mixed",8.44 ± 0.07
"N=C(N)NCCC[C@H](NC(=O)[C@@H]1CCCN1C(=O)[C@@H]1CSSC2(CCCCC2)CC(=O)N[C@@H](Cc2ccc(O)cc2)C(=O)N[C@@H](Cc2ccccc2)C(=O)N[C@@H](CCC(N)=O)C(=O)N[C@@H](CC(N)=O)C(=O)N1)C(=O)NCC(N)=O [d(CH2)5 AVP, [1-(beta-mercapto-beta,beta-cyclopentamethylenepropionic acid)]-arginine vasopressin, reference compound] (YFQNCPRG-NH2; linker N-5 via X1)",Anti-VP pA2,[2],8.16 ± 0.09
"N=C(N)NCCC[C@H](NC(=O)[C@@H]1CCCN1C(=O)[C@@H]1CSSC2(CCCCC2)CC(=O)N[C@@H](Cc2ccc(O)cc2)C(=O)N[C@@H](Cc2ccccc2)C(=O)N[C@@H](CCC(N)=O)C(=O)N[C@@H](CC(N)=O)C(=O)N1)C(=O)O [desGly(NH2)^9 d(CH2)5 AVP, [1-(beta-mercapto-beta,beta-cyclopentamethylenepropionic acid), 9-desglycinamide]-arginine vasopressin] (YFQNCPR-OH; linker N-5 via X1)",Anti-VP pA2,[2],7.88 ± 0.06
